Experimental data from US11753407B2, “Compounds for treating spinal muscular atrophy” (PTC Therapeutics, Inc., priority 2012, dated 2023).
Values belong to the molecule of their own block, whether it stands above or below them.

Tests used:
[1] = system: SMN2 minigene mRNA (SMN2-A minigene) in HEK293H cells; experiment: SMN2 minigene mRNA splicing RT-qPCR assay in cultured cells; assay type: cell-based, human; details: Homo sapiens, HEK293-H; concentration increasing full length SMN2 mRNA 1.5-fold relative to vehicle-treated cells; HEK293H cells with SMN2-A minigene, 24 hours, 7-point concentration data; read-out: EC1.5x for production of full length SMN2 mRNA
Procedure, shortened: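 Cells are seeded, left to attach 4-6 h, then dosed with test compound across seven concentrations and incubated 24 h. Lysates undergo RT-qPCR with primers/probe specific to the exon 7-containing minigene transcript, co-amplified with GAPDH. Fold change over vehicle is calculated, and EC1.5× marks the 1.5-fold point.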

[2] = system: Smn protein in SMA patient fibroblast cells (GM03813); experiment: Smn protein assay in cultured cells (SMN HTRF); assay type: cell-based, human; details: SMA patient fibroblast cells, 48 hours; for EC1.5x for Smn protein expression: 7-point concentration curve, SMN HTRF, concentration producing 1.5 times Smn protein vs DMSO vehicle control; for maximum fold (Fold) increase of Smn protein: 7-point concentration data, fold relative to vehicle control
Procedure, shortened: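 Patient-derived SMA fibroblasts are plated, given compound for 48 h, then lysed in RIPA buffer with protease inhibitors. Lysate Smn is detected by an anti-SMN d2/kryptate HTRF pair incubated overnight. The normalized ΔF is divided by the vehicle ΔF to give fold change, from which EC1.5× and maximum fold are taken.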

melting point: 200 to 202 °C
Structure (SMILES): Cn1cc2cc(-c3cc(=O)n4cc(N5CCN(CCO)CC5)ncc4n3)ccc2n1 [Compound 591, 7-[4-(2-hydroxyethyl)piperazin-1-yl]-2-(2-methyl-2H-indazol-5-yl)-4H-pyrazino[1,2-a]pyrimidin-4-one]
EC (1.5-fold increase) [1]: 0.3 to 1 µM | EC1.5x for Smn protein expression [2]: ** (an EC1.5× between >1 μM and ≤3 μM is indicated by two stars (**)) | maximum fold (Fold) increase of Smn protein [2]: **** (a fold increase between >1.5 and ≤1.65 is indicated by four stars (****))

melting point: 249 to 251 °C
Structure (SMILES): Cc1cn2cc(-c3cc(=O)n4cc(C5CCN(C)CC5)ncc4n3)cc(C)c2n1 [Compound 592, 2-(2,8-dimethylimidazo[1,2-a]pyridin-6-yl)-7-(1-methylpiperidin-4-yl)-4H-pyrazino[1,2-a]pyrimidin-4-one]
EC (1.5-fold increase) [1]: 0.1 to 0.3 µM | EC1.5x for Smn protein expression [2]: *** (an EC1.5× between >0.3 μM and ≤1 μM is indicated by three stars (***)) | maximum fold (Fold) increase of Smn protein [2]: ***** (a fold increase >1.65 is indicated by five stars (*****))

melting point: 242 to 244 °C
Structure (SMILES): CCN1CCC(c2cn3c(=O)cc(-c4cc(C)c5nc(C)cn5c4)nc3cn2)CC1 [Compound 593, 2-(2,8-dimethylimidazo[1,2-a]pyridin-6-yl)-7-(1-ethylpiperidin-4-yl)-4H-pyrazino[1,2-a]pyrimidin-4-one]
EC (1.5-fold increase) [1]: < 0.1 µM | EC1.5x for Smn protein expression [2]: **** (an EC1.5x≤0.3 μM is indicated by four stars (****)) | maximum fold (Fold) increase of Smn protein [2]: ***** (a fold increase >1.65 is indicated by five stars (*****))

melting point: 242 to 244 °C
Structure (SMILES): Cc1cn2cc(-c3cc(=O)n4cc(C5CCN(CCO)CC5)ncc4n3)cc(C)c2n1 [Compound 594, 2-(2,8-dimethylimidazo[1,2-a]pyridin-6-yl)-7-[1-(2-hydroxyethyl)piperidin-4-yl]-4H-pyrazino[1,2-a]pyrimidin-4-one]
EC (1.5-fold increase) [1]: 0.1 to 0.3 µM | EC1.5x for Smn protein expression [2]: *** (an EC1.5× between >0.3 μM and ≤1 μM is indicated by three stars (***)) | maximum fold (Fold) increase of Smn protein [2]: **** (a fold increase between >1.5 and ≤1.65 is indicated by four stars (****))

melting point: 243 to 245 °C
Structure (SMILES): Cc1cn2cc(-c3cc(=O)n4cc(C5CCN(C(C)C)CC5)ncc4n3)cc(Cl)c2n1 [Compound 595, 2-(8-chloro-2-methylimidazo[1,2-a]pyridin-6-yl)-7-[1-(propan-2-yl)piperidin-4-yl]-4H-pyrazino[1,2-a]pyrimidin-4-one]
EC (1.5-fold increase) [1]: < 0.1 µM | EC1.5x for Smn protein expression [2]: **** (an EC1.5x≤0.3 μM is indicated by four stars (****)) | maximum fold (Fold) increase of Smn protein [2]: **** (a fold increase between >1.5 and ≤1.65 is indicated by four stars (****))

melting point: 228 to 236 °C
Structure (SMILES): CCNC1CCN(c2cc(C)c3nc(-c4cc5c(C)nc(C)cn5n4)cc(=O)n3c2)CC1 [Compound 596, 2-(4,6-dimethylpyrazolo[1,5-a]pyrazin-2-yl)-7-[4-(ethylamino)piperidin-1-yl]-9-methyl-4H-pyrido[1,2-a]pyrimidin-4-one]
EC (1.5-fold increase) [1]: < 0.1 µM | EC1.5x for Smn protein expression [2]: **** (an EC1.5x≤0.3 μM is indicated by four stars (****)) | maximum fold (Fold) increase of Smn protein [2]: **** (a fold increase between >1.5 and ≤1.65 is indicated by four stars (****))

melting point: 218 to 227 °C
Structure (SMILES): Cc1cn2nc(-c3cc(=O)n4cc(N5CCC(N(CCO)CCO)CC5)cc(C)c4n3)cc2c(C)n1 [Compound 597, 7-{4-[bis(2-hydroxyethyl)amino]piperidin-1-yl}-2-(4,6-dimethylpyrazolo[1,5-a]pyrazin-2-yl)-9-methyl-4H-pyrido[1,2-a]pyrimidin-4-one]
EC (1.5-fold increase) [1]: 0.1 to 0.3 µM | EC1.5x for Smn protein expression [2]: *** (an EC1.5× between >0.3 μM and ≤1 μM is indicated by three stars (***)) | maximum fold (Fold) increase of Smn protein [2]: **** (a fold increase between >1.5 and ≤1.65 is indicated by four stars (****))

melting point: 205 to 207 °C
Structure (SMILES): Cc1nc2ccc(-c3cc(=O)n4nc(C5CCN(CCO)CC5)ccc4n3)cc2o1 [Compound 598, 7-[1-(2-hydroxyethyl)piperidin-4-yl]-2-(2-methyl-1,3-benzoxazol-6-yl)-4H-pyrimido[1,2-b]pyridazin-4-one]
EC (1.5-fold increase) [1]: 0.1 to 0.3 µM | EC1.5x for Smn protein expression [2]: *** (an EC1.5× between >0.3 μM and ≤1 μM is indicated by three stars (***)) | maximum fold (Fold) increase of Smn protein [2]: ***** (a fold increase >1.65 is indicated by five stars (*****))

melting point: 266 to 268 °C
Structure (SMILES): Cc1cn2cc(-c3cc(=O)n4cc(C5CCN(CCO)CC5)ncc4n3)cc(Cl)c2n1 [Compound 599, 2-(8-chloro-2-methylimidazo[1,2-a]pyridin-6-yl)-7-[1-(2-hydroxyethyl)piperidin-4-yl]-4H-pyrazino[1,2-a]pyrimidin-4-one]
EC (1.5-fold increase) [1]: < 0.1 µM | EC1.5x for Smn protein expression [2]: **** (an EC1.5x≤0.3 μM is indicated by four stars (****)) | maximum fold (Fold) increase of Smn protein [2]: ***** (a fold increase >1.65 is indicated by five stars (*****))

Further lines, the molecule ahead of its results:

Structure (SMILES): Cc1cn2cc(-c3cc(=O)n4cc(C5CCN(C)CC5)ncc4n3)ccc2n1 [Compound 579, 2-(2-methylimidazo[1,2-a]pyridin-6-yl)-7-(1-methylpiperidin-4-yl)-4H-pyrazino[1,2-a]pyrimidin-4-one]
melting point: 277 to 280 °C | EC (1.5-fold increase) [1]: 0.1 to 0.3 µM | EC1.5x for Smn protein expression [2]: *** (an EC1.5× between >0.3 μM and ≤1 μM is indicated by three stars (***)) | maximum fold (Fold) increase of Smn protein [2]: ***** (a fold increase >1.65 is indicated by five stars (*****))

Structure (SMILES): CCN1CCC(c2cn3c(=O)cc(-c4ccc5nc(C)cn5c4)nc3cn2)CC1 [Compound 580, 7-(1-ethylpiperidin-4-yl)-2-(2-methylimidazo[1,2-a]pyridin-6-yl)-4H-pyrazino[1,2-a]pyrimidin-4-one]
melting point: 255 to 258 °C | EC (1.5-fold increase) [1]: < 0.1 µM | EC1.5x for Smn protein expression [2]: *** (an EC1.5× between >0.3 μM and ≤1 μM is indicated by three stars (***)) | maximum fold (Fold) increase of Smn protein [2]: ***** (a fold increase >1.65 is indicated by five stars (*****))

Structure (SMILES): Cc1cn2cc(-c3cc(=O)n4cc(C5CCN(CCO)CC5)ncc4n3)ccc2n1 [Compound 581, 7-[1-(2-hydroxyethyl)piperidin-4-yl]-2-(2-methylimidazo[1,2-a]pyridin-6-yl)-4H-pyrazino[1,2-a]pyrimidin-4-one]
melting point: 250 to 252 °C | EC (1.5-fold increase) [1]: 0.1 to 0.3 µM | EC1.5x for Smn protein expression [2]: *** (an EC1.5× between >0.3 μM and ≤1 μM is indicated by three stars (***)) | maximum fold (Fold) increase of Smn protein [2]: ***** (a fold increase >1.65 is indicated by five stars (*****))

Structure (SMILES): Cc1cn2nc(-c3cc(=O)n4cc(N5CCC(N(C)CCO)CC5)cc(C)c4n3)cc2c(C)n1 [Compound 582, 2-(4,6-dimethylpyrazolo[1,5-a]pyrazin-2-yl)-7-{4-[(2-hydroxyethyl)(methyl)amino]piperidin-1-yl}-9-methyl-4H-pyrido[1,2-a]pyrimidin-4-one]
melting point: 250 to 259 °C | EC (1.5-fold increase) [1]: < 0.1 µM | EC1.5x for Smn protein expression [2]: **** (an EC1.5x≤0.3 μM is indicated by four stars (****)) | maximum fold (Fold) increase of Smn protein [2]: ***** (a fold increase >1.65 is indicated by five stars (*****))

Structure (SMILES): CCCNC1CCN(c2cc(C)c3nc(-c4cc5c(C)nc(C)cn5n4)cc(=O)n3c2)CC1 [Compound 583, 2-(4,6-dimethylpyrazolo[1,5-a]pyrazin-2-yl)-9-methyl-7-[4-(propylamino)piperidin-1-yl]-4H-pyrido[1,2-a]pyrimidin-4-one]
melting point: 231 to 241 °C | EC (1.5-fold increase) [1]: < 0.1 µM | EC1.5x for Smn protein expression [2]: **** (an EC1.5x≤0.3 μM is indicated by four stars (****)) | maximum fold (Fold) increase of Smn protein [2]: ***** (a fold increase >1.65 is indicated by five stars (*****))

Structure (SMILES): Cc1cn2nc(-c3cc(=O)n4cc(N5CCC(C)(N)CC5)ccc4n3)cc2c(C)n1 [Compound 584, 7-(4-amino-4-methylpiperidin-1-yl)-2-(4,6-dimethylpyrazolo[1,5-a]pyrazin-2-yl)-4H-pyrido[1,2-a]pyrimidin-4-one]
melting point: 200 to 203 °C | EC (1.5-fold increase) [1]: < 0.1 µM | EC1.5x for Smn protein expression [2]: **** (an EC1.5x≤0.3 μM is indicated by four stars (****)) | maximum fold (Fold) increase of Smn protein [2]: ***** (a fold increase >1.65 is indicated by five stars (*****))

Structure (SMILES): Cn1cc2cc(-c3cc(=O)n4cc(N5CCNCC5)ncc4n3)ccc2n1 [Compound 586, 2-(2-methyl-2H-indazol-5-yl)-7-(piperazin-1-yl)-4H-pyrazino[1,2-a]pyrimidin-4-one]
melting point: 160 to 162 °C | EC (1.5-fold increase) [1]: 0.1 to 0.3 µM | EC1.5x for Smn protein expression [2]: **** (an EC1.5x≤0.3 μM is indicated by four stars (****)) | maximum fold (Fold) increase of Smn protein [2]: ***** (a fold increase >1.65 is indicated by five stars (*****))

Structure (SMILES): CCN1CCN(c2cn3c(=O)cc(-c4ccc5nn(C)cc5c4)nc3cn2)CC1 [Compound 590, 7-(4-ethylpiperazin-1-yl)-2-(2-methyl-2H-indazol-5-yl)-4H-pyrazino[1,2-a]pyrimidin-4-one]
melting point: 214 to 216 °C | EC (1.5-fold increase) [1]: 0.3 to 1 µM | EC1.5x for Smn protein expression [2]: ** (an EC1.5× between >1 μM and ≤3 μM is indicated by two stars (**)) | maximum fold (Fold) increase of Smn protein [2]: **** (a fold increase between >1.5 and ≤1.65 is indicated by four stars (****))
